# Data from patent publication US20230104936A1, “TRPML MODULATORS” (Casma Therapeutics, Inc., priority 2019, published 2023).
# Test system: TFEB
# Experiment: TFEB nuclear translocation assay, HeLa wt cells
# Format: cell-based
# Details: Homo sapiens, HeLa, 2 h, 2 hrs compound treatment, Table 1 does not say HeLa wt or TRPML1 KO
# In short: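 HeLa wt cells were treated with compound for 2 hrs at 37° C, then fixed in 4% PFA and immunostained for TFEB with an Alexa 488 secondary and Hoechst nuclear counterstain. Automated epifluorescence imaging at ×20 gave the ratio of nuclear TFEB intensity to a perinuclear ring region, from which AC50 was derived.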
row,Compound,AC50
1,"CC1(C)CC2(CCN(c3ccccc3NS(=O)(=O)c3ccn(C4CC4(F)F)n3)CC2)CO1 (stereo not shown) [Compound A-689, 1-(2,2-difluorocyclopropyl)-N-(2-{3,3-dimethyl-2-oxa-8-azaspiro[4.5]decan-8-yl}phenyl)-1H-pyrazole-3-sulfonamide]",≥ 10000 nM
2,"CC1(C)CC2(CCN(c3ccccc3NS(=O)(=O)c3ccc4c(c3)CCC(C(F)F)O4)CC2)CO1 (stereo not shown) [Compound A-690, 2-(difluoromethyl)-N-(2-{3,3-dimethyl-2-oxa-8-azaspiro[4.5]decan-8-yl}phenyl)-3,4-dihydro-2H-1-benzopyran-6-sulfonamide]",2010 to 8000 nM
3,"CC1(C)CC2(CCN(c3ccccc3NS(=O)(=O)c3ccc(Br)cc3)CC2)CO1 [Compound A-691, 4-bromo-N-(2-{3,3-dimethyl-2-oxa-8-azaspiro[4.5]decan-8-yl}phenyl)benzene-1-sulfonamide]",2010 to 8000 nM
4,"Cc1ccc(S(=O)(=O)Nc2ccccc2N2CCC3(CC2)COC(C)(C)C3)cc1F [Compound A-692, N-(2-{3,3-dimethyl-2-oxa-8-azaspiro[4.5]decan-8-yl}phenyl)-3-fluoro-4-methylbenzene-1-sulfonamide]",2010 to 8000 nM
5,"CC1(C)CC2(CCN(c3ccccc3NS(=O)(=O)c3ccc(S(C)(=O)=O)cc3)CC2)CO1 [Compound A-693, N-(2-{3,3-dimethyl-2-oxa-8-azaspiro[4.5]decan-8-yl}phenyl)-4-methanesulfonylbenzene-1-sulfonamide]",2010 to 8000 nM
6,"COCC1(C)CCN(c2cc(F)ccc2NS(=O)(=O)c2ccc(S(=O)(=O)N(C)C)cc2)CC1 [Compound A-694, N4-{4-fluoro-2-[4-(methoxymethyl)-4-methylpiperidin-1-yl]phenyl}-N1,N1-dimethylbenzene-1,4-disulfonamide]",≤ 2000 nM
7,"COCC1(C)CCN(c2ccc(F)cc2NS(=O)(=O)c2ccc(S(=O)(=O)N(C)C)cc2)CC1 [Compound A-695, N4-{5-fluoro-2-[4-(methoxymethyl)-4-methylpiperidin-1-yl]phenyl}-N1,N1-dimethylbenzene-1,4-disulfonamide]",≤ 2000 nM
8,"CN(C)S(=O)(=O)c1ccc(S(=O)(=O)Nc2ccccc2N2CCC(COC(F)(F)F)CC2)cc1 [Compound A-696, N1,N1-dimethyl-N4-(2-{4-[(trifluoromethoxy)methyl]piperidin-1-yl}phenyl)benzene-1,4-disulfonamide]",≤ 2000 nM
9,"COCC1(C)CCN(c2ccccc2NS(=O)(=O)c2ccc(S(C)(=O)=O)cc2)CC1 [Compound A-697, 4-methanesulfonyl-N-{2-[4-(methoxymethyl)-4-methylpiperidin-1-yl]phenyl}benzene-1-sulfonamide]",2010 to 8000 nM
10,"CC1(C)CC2(CCN(c3ccccc3NS(=O)(=O)c3ccc4c(c3)COC4(C)C)CC2)CO1 [Compound A-700, N-(2-{3,3-dimethyl-2-oxa-8-azaspiro[4.5]decan-8-yl}phenyl)-1,1-dimethyl-1,3-dihydro-2-benzofuran-5-sulfonamide]",2010 to 8000 nM
11,"COCCS(=O)(=O)c1ccc(S(=O)(=O)Nc2ccccc2N2CCC(c3ccc(Cl)cc3F)CC2)cc1 [Compound A-701, N-{2-[4-(4-chloro-2-fluorophenyl)piperidin-1-yl]phenyl}-4-(2-methoxyethanesulfonyl)benzene-1-sulfonamide]",≤ 2000 nM
12,"CC1(C)CC2(CCN(c3c(F)cccc3NS(=O)(=O)Cc3ccccc3)CC2)CO1 [Compound A-702, N-(2-{3,3-dimethyl-2-oxa-8-azaspiro[4.5]decan-8-yl}-3-fluorophenyl)-1-phenylmethanesulfonamide]",≤ 2000 nM
13,"CCOC(=O)CC1(F)CCN(c2ccccc2NS(=O)(=O)c2ccc(S(=O)(=O)N(C)C)cc2)CC1 [Compound A-703, ethyl 2-(1-{2-[4-(dimethylsulfamoyl)benzenesulfonamido]phenyl}-4-fluoropiperidin-4-yl)acetate]",≤ 2000 nM
14,"CC1(C)CC2(CCN(c3ccccc3NS(=O)(=O)c3ccc4c(c3)OC(C)(C)O4)CC2)CO1 [Compound A-704, N-(2-{3,3-dimethyl-2-oxa-8-azaspiro[4.5]decan-8-yl}phenyl)-2,2-dimethyl-2H-1,3-benzodioxole-5-sulfonamide]",≤ 2000 nM
15,"COCC1(C)CCN(c2ccccc2NS(=O)(=O)c2ccc(C(C)(C)C(=O)OC)cc2)CC1 [Compound A-705, methyl 2-[4-({2-[4-(methoxymethyl)-4-methylpiperidin-1-yl]phenyl}sulfamoyl)phenyl]-2-methylpropanoate]",8010 to 9990 nM
16,"COCC1(C)CCN(c2ccccc2NS(=O)(=O)c2ccc(C(C)C)cc2)CC1 [Compound A-706, N-{2-[4-(methoxymethyl)-4-methylpiperidin-1-yl]phenyl}-4-(propan-2-yl)benzene-1-sulfonamide]",≤ 2000 nM
17,"COCC1(C)CCN(c2ccccc2NS(=O)(=O)c2ccc3c(c2)CC(OC)C3)CC1 (stereo not shown) [Compound A-707, 2-methoxy-N-{2-[4-(methoxymethyl)-4-methylpiperidin-1-yl]phenyl}-2,3-dihydro-1H-indene-5-sulfonamide]",2010 to 8000 nM

row,Compound,AC50
1,"COCC1(C)CCN(c2ccccc2NS(=O)(=O)c2ccc(C3CC3)s2)CC1 [Compound A-708, 5-cyclopropyl-N-{2-[4-(methoxymethyl)-4-methylpiperidin-1-yl]phenyl}thiophene-2-sulfonamide]",≤ 2000 nM
2,"COCC1(C)CCN(c2ccccc2NS(=O)(=O)Cc2ccc(C)cc2F)CC1 [Compound A-709, 1-(2-fluoro-4-methylphenyl)-N-{2-[4-(methoxymethyl)-4-methylpiperidin-1-yl]phenyl}methanesulfonamide]",2010 to 8000 nM
3,"COC(=O)C(C)(C)c1ccc(S(=O)(=O)Nc2ccccc2N2CCC3(CC2)COC(C)(C)C3)cc1 [Compound A-710, methyl 2-{4-[(2-{3,3-dimethyl-2-oxa-8-azaspiro[4.5]decan-8-yl}phenyl)sulfamoyl]phenyl}-2-methylpropanoate]",8010 to 9990 nM
4,"Cc1ccc(CS(=O)(=O)Nc2ccccc2N2CCC3(CC2)COC(C)(C)C3)cc1 [Compound A-711, N-(2-{3,3-dimethyl-2-oxa-8-azaspiro[4.5]decan-8-yl}phenyl)-1-(4-methylphenyl)methanesulfonamide]",≤ 2000 nM
5,"CC1(C)CC2(CCN(c3ccccc3NS(=O)(=O)Cc3ccc4c(c3)COCC4)CC2)CO1 [Compound A-712, 1-(3,4-dihydro-1H-2-benzopyran-7-yl)-N-(2-{3,3-dimethyl-2-oxa-8-azaspiro[4.5]decan-8-yl}phenyl)methanesulfonamide]",2010 to 8000 nM
6,"CC1(C)CC2(CCN(c3ccccc3NS(=O)(=O)c3ccc4c(c3)CCC4)CC2)CO1 [Compound A-713, N-(2-{3,3-dimethyl-2-oxa-8-azaspiro[4.5]decan-8-yl}phenyl)-2,3-dihydro-1H-indene-5-sulfonamide]",≤ 2000 nM
7,"CC1(C)CC2(CCN(c3ccccc3NS(=O)(=O)c3ccc4c(c3)COC4)CC2)CO1 [Compound A-714, N-(2-{3,3-dimethyl-2-oxa-8-azaspiro[4.5]decan-8-yl}phenyl)-1,3-dihydro-2-benzofuran-5-sulfonamide]",8010 to 9990 nM
8,"CC1(C)CC2(CCN(c3ccccc3NS(=O)(=O)c3ccc4c(c3)COCC4)CC2)CO1 [Compound A-715, N-(2-{3,3-dimethyl-2-oxa-8-azaspiro[4.5]decan-8-yl}phenyl)-3,4-dihydro-1H-2-benzopyran-7-sulfonamide]",≤ 2000 nM
9,"CC1(C)CC2(CCN(c3ccccc3NS(=O)(=O)Cc3ccc(C(F)F)cc3)CC2)CO1 [Compound A-716, 1-[4-(difluoromethyl)phenyl]-N-(2-{3,3-dimethyl-2-oxa-8-azaspiro[4.5]decan-8-yl}phenyl)methanesulfonamide]",2010 to 8000 nM
10,"CC1(C)CC2(CCN(c3ccccc3NS(=O)(=O)C3(c4ccccc4)CC3)CC2)CO1 [Compound A-717, N-(2-{3,3-dimethyl-2-oxa-8-azaspiro[4.5]decan-8-yl}phenyl)-1-phenylcyclopropane-1-sulfonamide]",2010 to 8000 nM
11,"CC1(C)CC2(CCN(c3ccccc3NS(=O)(=O)c3ccc(C4CC4(F)F)cc3)CC2)CO1 (stereo not shown) [Compound A-718, 4-(2,2-difluorocyclopropyl)-N-(2-{3,3-dimethyl-2-oxa-8-azaspiro[4.5]decan-8-yl}phenyl)benzene-1-sulfonamide]",≤ 2000 nM
12,"CCOCC1(C)CCN(c2ccccc2NS(=O)(=O)c2ccc(S(=O)(=O)N(C)C)cc2)CC1 [Compound A-719, N4-{2-[4-(ethoxymethyl)-4-methylpiperidin-1-yl]phenyl}-N1,N1-dimethylbenzene-1,4-disulfonamide]",≤ 2000 nM
13,"CC1(C)CC2(CCN(c3ccccc3NS(=O)(=O)c3ccc4c(c3)OC(C)(C)C4)CC2)CO1 [Compound A-720, N-(2-{3,3-dimethyl-2-oxa-8-azaspiro[4.5]decan-8-yl}phenyl)-2,2-dimethyl-2,3-dihydro-1-benzofuran-6-sulfonamide]",2010 to 8000 nM
14,"COCC1(C)CCN(c2ccccc2NS(=O)(=O)c2ccc3c(c2)OC(C)(C)O3)CC1 [Compound A-721, N-{2-[4-(methoxymethyl)-4-methylpiperidin-1-yl]phenyl}-2,2-dimethyl-2H-1,3-benzodioxole-5-sulfonamide]",≤ 2000 nM
15,"CN(C)S(=O)(=O)c1ccc(S(=O)(=O)Nc2ccccc2N2CCC(F)(CCO)CC2)cc1 [Compound A-722, N4-{2-[4-fluoro-4-(2-hydroxyethyl)piperidin-1-yl]phenyl}-N1,N1-dimethylbenzene-1,4-disulfonamide]",≥ 10000 nM
16,"CC1(C)CC2(CCN(c3ccccc3NS(=O)(=O)c3ccc4c(c3)OC3(CCC3)O4)CC2)CO1 [Compound A-723, N-(2-{3,3-dimethyl-2-oxa-8-azaspiro[4.5]decan-8-yl}phenyl)spiro[1,3-benzodioxole-2,1′-cyclobutane]-6-sulfonamide]",≤ 2000 nM
17,"CN(C)S(=O)(=O)c1ccc(S(=O)(=O)Nc2cccc(C#N)c2N2CCC3(CC2)COC(C)(C)C3)cc1 [Compound A-724, N4-(3-cyano-2-{3,3-dimethyl-2-oxa-8-azaspiro[4.5]decan-8-yl}phenyl)-N1,N1-dimethylbenzene-1,4-disulfonamide]",≤ 2000 nM
